Test [1] concerns the target T1, recombinant human stromelysin (Homo sapiens, UniProt P08254).
T1 construct: recombinant human stromelysin (mol. wt. 45-47 kDa, 2 Units)
Kind of test: Inhibition of stromelysin activity (hydrolysis of Substance P). The following applies: 30 min at 37° C. Format: biochemical. As to the method: One test to determine the inhibition of stromelysin activity is based on its hydrolysis of Substance P using a modified procedure of Harrison et al (Harrison, […]., and Stein R., A semicontinuous, high performance chromatography based assay for stromelysin, Anal. Biochem. 18, 110-113 (1989)). In this assay, Substance P is hydrolyzed by recombinant human stromelysin to generate a fragment, Substance P 7-11, which can be quantitated by HPLC. In a typical assay, a 10 mM stock solution of a compound to be tested is diluted in the assay buffer to 50 μM, mixed 1:1 with 8 μg recombinant human stromelysin (mol. wt. 45-47 kDa, 2 Units; where 1 Unit produces […] of Substance P 7-11 in 30 minutes) and incubated along with 0.5 mM Substance P in a final volume of 0.125 ml for 30 minutes at 37° C. The reaction is stopped by adding 10 mM EDTA and Substance P 7-11 is quantified on RP-8 HPLC. The IC50 for inhibition of stromelysin activity and Ki are calculated from control reaction without the inhibitor.

Test [2] deals with TNF-alpha production by LPS-stimulated THP-1 cells. Kind of test: Effect on the production of soluble TNF-alpha by LPS-stimulated THP-1 cells. It is filed as cell-based. The following applies: Homo sapiens, 30 min pre-incubation, 100 ng/ml LPS for 4 hours, ELISA. As to the method:
The effect on the production of soluble TNF-alpha by LPS-stimulated THP-1 cells can be determined as follows: Tissue culture medium used is RPM 1640 (Gibco cat #11875-036) containing 10% fetal calf serum, 1% penicillin and streptomycin. TBP-1 cells (ATCC #202-TIB) at 1×10+5 cells/well are added to 100 μl medium or test compound. Cells are pre-incubated with compound for 30 minutes in a 37° C. humidified chamber with 5% CO2 and then stimulated with 100 ng/ml of LPS (Sigma cat #L-4391) for 4 hours. Plates are then centrigued and […] of conditioned medium for TNF analysis is harvested. The amount of TNF-alpha in control and test cultures is determined by ELISA using recombinant TNF-alpha for the standard curve, using TNF ELISA plates (Genzyme) for TNF analysis. Absorbance readings and data calculations are performed on a Molecular Devices plate reader. Results are expressed in IC50 's of test compound.
On the technique in general: ELISA stands for enzyme-linked immunosorbent assay.

In test [3] the test system is TNF-alpha (synovial fluid). Kind of test: Effect on the synovial fluid concentration of TNF-alpha in an inflamed rat knee. Format: in vivo, rat (Female lewis). The following applies: 50 mg/Kg p.o., dosed 1-4 h before LPS injected into both knees. The protocol:
The effect on the synovial fluid concentration of TNF-alpha in an inflamed rat knee can be determined as follows: Female lewis rats are dosed by gavage with test compound in 0.1 ml cornstarch vehicle. One to four hours after administration of test compound 0.1 mg Lipopolysaccharide from E. coli 0127:B8 (Difco #3880-25-0) is injected into both knees. Two hours after intra-articular LPS injection, knees are lavaged with 0.1 ml saline and 2 lavages from same rat are pooled. TNF-alpha is measured using mouse TNF-alpha ELISA kit (Genzyme) which crossreacts with rat TNF-alpha Results are expressed as % inhibition of mean TNF-alpha concentration in synovial fluid from saline-injected knees.

Test [4] concerns the target T2, Human recombinant fibroblast collagenase (Homo sapiens, UniProt P03956).
T2 sequence (P03956 100-469): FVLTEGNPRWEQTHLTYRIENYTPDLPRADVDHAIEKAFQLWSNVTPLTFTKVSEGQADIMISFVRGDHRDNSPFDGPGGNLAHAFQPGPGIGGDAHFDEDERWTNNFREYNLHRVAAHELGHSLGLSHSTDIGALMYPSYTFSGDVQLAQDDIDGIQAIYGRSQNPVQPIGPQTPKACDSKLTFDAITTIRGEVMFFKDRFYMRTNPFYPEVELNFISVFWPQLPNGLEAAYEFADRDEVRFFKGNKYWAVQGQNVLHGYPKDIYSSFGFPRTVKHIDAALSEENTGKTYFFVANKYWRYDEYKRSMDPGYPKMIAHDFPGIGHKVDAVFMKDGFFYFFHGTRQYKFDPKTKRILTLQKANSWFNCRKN
Kind of test: Collagenase activity (digestion of bovine type I collagen). It is filed as biochemical. The following applies: 2 hours at 35° C., read-out: IC50 for inhibition of collagenase activity. As to the method:
Collagenase activity is determined as follows: ninety six-well, flat-bottom microtiter plates are first coated with bovine type I collagen (35 ug/well) over a two-day period at 30° C. using a humidified and then dry atmosphere; plates are rinsed, air dried for 34 hours, sealed with Saran wrap and stored in a refrigerator. Human recombinant fibroblast collagenase and a test compound (or buffer) are added to wells (total volume =0.1 ml) and plates are incubated for 2 hours at 35° C. under humidified conditions; the amount of collagenase used per well is that causing approximately 80% of maximal digestion of collagen. The incubation media are removed from the wells, which are then rinsed with buffer, followed by water. Coomasie blue stain is added to the wells for 25 minutes, removed, and wells are again rinsed with water. Sodium dodecyl sulfate (20% in 50% dimethylformamide in water) is added to solubilize the remaining stained collagen and the optical density at 570 nm wave length is measured. The decrease in optical density due to collagenase (from that of collagen without enzyme) is compared to the decrease in optical density due to the enzyme in the presence of test compound, and percent inhibition of enzyme activity is calculated. IC50's are determined from a range of concentrations of inhibitors (4-5 concentrations, each tested in triplicate), and Ki values are calculated.

In test [5] the test system is collagen-II induced arthritis in mice. Kind of test: Collagen II induced arthritis model in mice. It is filed as in vivo. The following applies: mouse, 100 mg/Kg p.o. An excerpt: Antiinflammatory activity can be determined in standard inflammation and arthritic animal models well-known in the art, e.g. the adjuvant arthritis model in rats and the collagen II induced arthritis model in mice [Mediators of […]. 1, 273-279 (1992)].

Test [6] relates to TNF-alpha (plasma). Kind of test: Effect on the plasma concentration of TNF-alpha in the mouse following intravenous injection of endotoxin. It is filed as in vivo, mouse (Female Balb-CbyJ). The following applies: about 50 mg/Kg p.o., dosed 1-4 h before 0.1 mg/kg LPS i.v. The protocol: The effect on the plasma concentration of TNF-alpha in the mouse following intravenous injection of endotoxin can be determined as follows:
Female Balb-CbyJ mice are dosed by gavage with test compound in 0.1 ml cornstarch vehicle/10 grams body weight. One to four hours after administration of test compound, 0.1 mg/kg Lipopolysaccharide from E. coli 0127:B8 (Difco #3880-25-0) in saline is injected i.v. One hour after i.v. injection of LPS, blood is collected for determination of plasma TNF-alpha using mouse TNF-alpha ELISA kit (Genzyme). Eight mice are used per treatment group. Results are expressed as % inhibition of mean TNF-alpha concentration in control mice.

Here are results for 2 compounds from US5770624A, “Certain alpha-substituted arylsulfonamido acetohydroxamic acids” (priority 1996, dated 1998).

SMILES strings stand for the structures. Structures can show the parent of a compound that is named as a salt.

T1 sequence (P08254 100-477): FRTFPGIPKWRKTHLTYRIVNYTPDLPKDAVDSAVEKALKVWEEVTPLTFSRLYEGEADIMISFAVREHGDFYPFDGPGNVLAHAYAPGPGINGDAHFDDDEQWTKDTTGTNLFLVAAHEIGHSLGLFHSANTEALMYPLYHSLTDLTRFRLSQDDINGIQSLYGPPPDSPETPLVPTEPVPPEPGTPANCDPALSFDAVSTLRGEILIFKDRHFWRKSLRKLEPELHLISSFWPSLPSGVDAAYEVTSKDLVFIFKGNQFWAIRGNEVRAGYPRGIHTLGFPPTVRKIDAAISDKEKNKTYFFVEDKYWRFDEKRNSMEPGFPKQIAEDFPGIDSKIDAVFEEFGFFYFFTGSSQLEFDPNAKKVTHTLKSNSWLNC

Broadly, the IC50 is the point on the concentration scale where inhibition reaches its midpoint. With `CCCO[C@H]1CC[C@H]([C@H](C(=O)NO)N(Cc2ccncc2)S(=O)(=O)c2ccc(OCC)cc2)CC1.Cl` [2(u), N-hydroxy-2(R)-[(4ethoxybenzenesulfonyl)(4-picolyl)amino]-2-(trans-4-propoxycyclohexyl)acetamide hydrochloride], the IC50 in test [1] is approximately 11 nM; in test [2] it was approximately 2500 nM; in test [4], approximately 45 nM. The “reduction of TNF-α concentration in the synovial fluid” value in test [3] was approximately 98%. For the same compound, the “inhibition of collagen-II induced arthritis in mice” value in test [5] is listed as “effective in inhibiting collagen-II induced arthritis”.

For `CCCO[C@H]1CC[C@H]([C@H](C(=O)NO)N(Cc2ccncc2)S(=O)(=O)c2ccc(OC)cc2)CC1` [Example 1, hydrochloride], the concentration for half-maximal inhibition (IC50) in test [1] was approximately 16 nM; in test [2], approximately 2500 nM; in test [4] it was approximately 80 nM. For the same compound, in test [6], the “% inhibition of mean plasma TNF-alpha concentration in control mice” value came out at 50%. In test [3], the “reduction of TNF-α concentration in the synovial fluid” value is on record as “about 70%”. The “inhibition of collagen-II induced arthritis in mice” value in test [5] is “effective in inhibiting collagen-II induced arthritis”.
